Here are results for one compound from article PMC10636063, “Progesterone activation of β1-containing BK channels involves two binding sites” (Nature Communications, 2023).

In assay [1] the test system is β1-β4 chimera (loop of β4 with β1 TMs). As to the kind of experiment: Thermal unfolding (MST) of β1-β4 chimera. In kind it is binding. To be noted: 0.004 μM. From the text:
(§1) BK channel-forming slo1 cDNA (cbv1 isoform; AY330293) was cloned from rat cerebral artery SM cells, and inserted into pcDNA3.1 vector as described. BK β1 cDNA (KCNMB1 product; NP_011452; FJ154955) were isolated from rat cerebral artery SM cells and cloned as described. β4 cDNA (KCNMB4; NP_055320; AY028605) were generously provided by Dr. Ligia Toro. CHO cells were transiently transfected with cbv1 ± β1-, or β4-carrying pcDNA3.1 using X-tremeGENE HP (Sigma-Aldrich). Mutations to β1/4 cDNAs were conducted by Genscript, with sequences being confirmed to be >99% identical to KCNMB1 product; NP_011452 or β4 KCNMB4; NP_055320; respectively. β1/4 and mutant constructs were flag-tagged (DYKDDDDK-tag) by Genscript services for subsequent immunoprecipitation and use in microscale thermophoresis studies.
(§2) Wt β1, wt β4 and mutant constructs were purified by immunoprecipitation using Dynabeads Protein G Kit (10007D by Invitrogen) and following the manufacturer’s instructions. […] The unfolding profile of a protein is a plot of its fluorescence signal against temperature. […] During the heating process, fluorescence is recorded at 330 and 350 nm. The resulting fluorescence ratio change is then analyzed for onset and inflection points. The temperature of onset and inflection is determined using built-in analysis function in Nanotemper PR.therm-control software. […]

In the next assay the target is T1, β1W87F (Rattus norvegicus, UniProt P97678, W87F).
T1 construct: FLAG (DYKDDDDK); made in house; host or cells: CHO cells, transient transfection, anti-flag immunoprecipitation
The experiment in a line: Thermal unfolding (MST) of β1W87F. In kind it is binding. To be noted: 0.004 and 4.1 µM.
Excerpt: as §1, §2

The test system of assay [2] is de-endothelialized, pressurized MCA segments (C57BL/6 male). The experiment in a line: EtOH-induced constriction of pressurized MCA in vitro. Particulars: 10 µM PROG, 10-75 mM EtOH. Set-up: species or system mouse. An excerpt: Eight-12 week-old C57BL/6J and KCNMB1^−/− on C57BL/6 background mice of both sexes were deeply anesthetized with isoflurane via inhalation in a tightly sealed jar. Resistance size MCAs (~100 μm in external diameter) were dissected out of the mouse brains after animal euthanasia with sharp scissors. For de-endothelialized records, the endothelium was removed by passing an air bubble into the vessel lumen for 90 s[30]. This method has been consistently used by our group and validated using endothelium-dependent versus endothelium-independent vasodilators[16],[26]. Arteries were cannulated as previously described by our group[26],[40]. MCAs were cut into 5 to 10 mm-long segments under a microscope (Nikon SMZ645). The segment was cannulated at each end, and the artery exterior was continuously perfused with physiologic sodium saline (PSS) of the following composition (mM): 119 NaCl, 4.7 KCl, 1.2 KH2PO4, 1.6 CaCl2, 1.2 MgSO4, 0.023 EDTA, 11 glucose, 24 NaHCO3, pH=7.4. PSS was continuously bubbled with an O2/CO2/N2 (21/5/74%) gas mixture and maintained at 35–37 °C. The artery external wall diameter was measured using the automatic edge-detection function of lonWizard software (lonOptix) via Sanyo VCB-3512T camera (Sanyo Electric Co.). Arteries were first incubated at an intravascular pressure of 10 mm Hg for 10 min. Then intravascular pressure was increased to 60 mmHg and held steady throughout the experiment to induce myogenic tone development and maintenance[19],[30],[51]. Each artery segment was exposed to PROG, PROG-oxime (in presence and absence of 1 µM paxilline) only once to avoid development of desensitization during repeated applications of PROG-containing solution. To determine arterial viability, arterial contractility was probed with a high KCl solution at the end of each experiment. The high KCl solution was composed of the following composition (mM): 63.7 NaCl, 60 KCl, 1.2 KH2PO4, 1.2 MgSO4, 0.023 EDTA, 11 glucose, 24 NaHCO3, 1.6 CaCl2, pH=7.4. Like PSS, the high-KCl solution was continuously bubbled with O2/CO2/N2 (21/5/74%) gas mixture and maintained at 35–37 °C.

T1 sequence (P97678 whole entry W87F): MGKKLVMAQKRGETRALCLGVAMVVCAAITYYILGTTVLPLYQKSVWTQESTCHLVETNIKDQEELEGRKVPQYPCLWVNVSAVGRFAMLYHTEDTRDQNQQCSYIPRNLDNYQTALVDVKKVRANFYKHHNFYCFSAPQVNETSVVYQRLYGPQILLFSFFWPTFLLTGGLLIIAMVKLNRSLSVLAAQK

On to `CC(=O)[C@H]1CC[C@H]2[C@@H]3CCC4=CC(=O)CC[C@]4(C)[C@H]3CC[C@]12C` [PROG, Progesterone], for which the “effect on thermal unfolding / binding” value in assay [1] is “still bound and destabilized the protein structure”; at β1W87F, “loss of PROG binding”. In addition, the “effect on EtOH-induced vasoconstriction” value in assay [2] is reported as “blunted EtOH-induced vasoconstriction at all alcohol concentrations”.
